According to patent US20100266623A1, “SYNTHETIC, SELF ADJUVANTING VACCINES” (priority 2008, published 2010):
Where a name gives a salt, the structure may show the parent alone. Where no end group is shown, it is not given here.

How the values were obtained:
anti-DNP antibodies = experiment: Inhibition ELISA for specificity of anti-DNP antibodies on DNP-BSA coated plates; format: binding, BALB/c mice; settings: for inhibition of antibody binding to DNP-BSA coated plates: inhibitor dilutions from 25 nmol/well; for inhibition of antibody binding to DNP-BSA coated plates by irrelevant inhibitors: sera not specified
Method: Competitive ELISA assays involved an extra step whereby ½ log dilutions of inhibitors in BSA5PBST beginning at 25 nmol/well were added to a constant limiting concentration of antibody in BSA5PBST and incubated for 2 hours on separate polyvinyl plates during the blocking step of a regular ELISA. 50 μl/well of the inhibitor and sera mixtures were then transferred to coated, blocked and washed plates and incubated overnight. Plates were then conjugated with HRP-RαM, developed, and read as per ELISA. The percentage of inhibition was determined by the following formula: […]
Inhibition ELISAs were utilised to determine whether antibody-titres detected in previous direct-binding ELISAs consisted mainly of anti-DNP antibodies. All immunogens (peptide- and protein-based) incorporated the 2,4-DNP isomer.
Sera were incubated with different amounts of various inhibitors (FIG. 14) before addition to DNP-BSA coated plates.

[1] = tested on: anti-amphetamine antibodies; experiment: Competitive ELISA for specificity of anti-amphetamine antibodies; format: binding; settings: 2° sera of mice immunised with lipidated amphetamine-TH(MV); coat 5 μg per ml
[2] = 2° sera of BALB/c mice immunised with DNP-BSA in CFA
[3] = 2° sera of BALB/c mice immunised with lipidated DNP-TH(MV)

## O=[N+]([O-])c1ccc(O)c([N+](=O)[O-])c1 [2,4-DNP, 2,4-dinitrophenol]
anti-DNP antibodies; [2]
  inhibition of antibody binding to DNP-BSA coated plates: No inhibition
anti-DNP antibodies; [3]
  inhibition of antibody binding to DNP-BSA coated plates: 35%

## O=C(O)CCCCCNc1ccc([N+](=O)[O-])cc1[N+](=O)[O-] [2,4-DNP-ahx, 2,4-dinitrophenol-ε-amino-n-caproic acid]
anti-DNP antibodies; [2]
  inhibition of antibody binding to DNP-BSA coated plates: approximately 55%
anti-DNP antibodies; [3]
  inhibition of antibody binding to DNP-BSA coated plates: approximately 80%

## C[C@H](N)Cc1ccccc1 [Amphetamine-sulfate, D-amphetamine sulfate]
[1]
  inhibition of antibody binding to amphetamine-TH(ova) coated plates: low level of inhibition

## CN[C@@H](C)Cc1ccccc1 [Methamphetamine hydrochloride]
[1]
  inhibition of antibody binding to amphetamine-TH(ova) coated plates: No inhibition

## COC(=O)[C@H]1[C@@H](OC(=O)c2ccccc2)C[C@@H]2CC[C@H]1N2C [cocaine hydrochloride]
[1]
  inhibition of antibody binding to amphetamine-TH(ova) coated plates: No inhibition

## Oc1ccccc1 [phenol]
anti-DNP antibodies
  inhibition of antibody binding to DNP-BSA coated plates by irrelevant inhibitors: no inhibition

## N[C@@H](Cc1ccc(O)cc1)C(=O)O [tyrosine]
anti-DNP antibodies
  inhibition of antibody binding to DNP-BSA coated plates by irrelevant inhibitors: no inhibition

## amphetamine-TH(Flu): succinyl amphetamine-Lys-TH(Flu) peptide, no lipid; coating antigen and inhibitor (KALNNRFQIKGVELKS; not fully specified)
[1]
  inhibition of antibody binding to amphetamine-TH(ova) coated plates: lower level of inhibition
